From paper PMC9864536, “Inter-Species Redox Coupling by Flavin Reductases and FMN-Dependent Two-Component Monooxygenases Undertaking Nucleophilic Baeyer–Villiger Biooxygenations” (Microorganisms, 2022)

Legend:
3,6-DKCMO = biological target: T1, 3,6-DKCMO (Pseudomonas putida, UniProt D7UER1); test: […] min biotransformation with FMNH2 supplied by purified flavin reductases, GC; type: biochemical; details: FMNH2 cosubstrate generated in situ from FMN and NADH, 1 mM ketone, pH 7.6, 25 °C
T1 construct: gene camE36; natively purified biooxygenating subunit, untagged
T1 sequence (D7UER1 1-378): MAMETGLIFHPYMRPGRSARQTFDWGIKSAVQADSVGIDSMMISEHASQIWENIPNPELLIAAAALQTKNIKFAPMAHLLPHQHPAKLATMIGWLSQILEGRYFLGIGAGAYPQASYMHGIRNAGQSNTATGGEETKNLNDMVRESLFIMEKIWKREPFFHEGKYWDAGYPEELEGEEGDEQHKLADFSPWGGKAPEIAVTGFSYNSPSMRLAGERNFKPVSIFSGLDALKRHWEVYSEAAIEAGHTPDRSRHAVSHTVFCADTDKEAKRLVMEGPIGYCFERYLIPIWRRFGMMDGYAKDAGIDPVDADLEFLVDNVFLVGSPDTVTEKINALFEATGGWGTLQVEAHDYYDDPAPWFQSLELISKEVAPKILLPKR

LuxAB luciferase = biological target: T2, LuxAB luciferase (Aliivibrio fischeri, UniProt P19907); test: as above; type: biochemical; details: FMNH2 cosubstrate generated in situ from FMN and NADH, 1 mM ketone, pH 7.6, 25 °C
T2 construct: gene luxA; natively purified LuxAB luciferase, untagged; with Alkanal monooxygenase beta chain
T2 sequence (P19907 1-354): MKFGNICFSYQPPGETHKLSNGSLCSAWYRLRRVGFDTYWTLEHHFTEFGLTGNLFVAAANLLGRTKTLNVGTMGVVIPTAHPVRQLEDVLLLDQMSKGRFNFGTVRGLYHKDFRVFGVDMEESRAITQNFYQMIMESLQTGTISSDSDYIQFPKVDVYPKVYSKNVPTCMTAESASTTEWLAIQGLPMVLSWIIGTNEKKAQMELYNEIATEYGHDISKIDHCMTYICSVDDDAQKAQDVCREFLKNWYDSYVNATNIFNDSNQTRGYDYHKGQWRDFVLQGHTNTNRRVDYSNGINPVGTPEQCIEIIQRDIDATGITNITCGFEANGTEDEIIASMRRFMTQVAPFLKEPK
T2 sequence (P19908 1-326 partner): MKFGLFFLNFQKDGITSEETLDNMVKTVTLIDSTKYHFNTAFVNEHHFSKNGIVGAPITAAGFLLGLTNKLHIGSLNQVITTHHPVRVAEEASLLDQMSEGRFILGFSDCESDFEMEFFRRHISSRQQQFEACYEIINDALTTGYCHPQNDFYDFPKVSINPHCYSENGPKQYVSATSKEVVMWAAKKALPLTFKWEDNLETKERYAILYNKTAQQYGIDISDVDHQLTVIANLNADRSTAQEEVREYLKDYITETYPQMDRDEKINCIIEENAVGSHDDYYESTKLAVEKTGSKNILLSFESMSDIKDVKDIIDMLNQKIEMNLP

Frp2 = test: initial rate of FMN reduction by NADH at […] nm, single-enzyme, Michaelis-Menten; type: biochemical, Pseudomonas putida; details: co-substrate NADH, anaerobic; single-enzyme assay (S); read-out: Apparent KmFMN
Frp1 = test: as above; type: biochemical, Pseudomonas putida; details: co-substrate NADH, anaerobic; single-enzyme assay (S); read-out: Apparent KmFMN
purified protein = substrate: Cc1cc2nc3c(=O)[nH]c(=O)nc-3n(C[C@H](O)[C@H](O)[C@H](O)COP(=O)(O)O)c2cc1C; test: purified protein; type: biochemical, Aliivibrio fischeri; details: co-substrate NADH, anaerobic; single-enzyme assay (S)

Cc1cc2c(cc1C)N(C[C@H](O)[C@H](O)[C@H](O)COP(=O)(O)O)c1[nH]c(=O)[nH]c(=O)c1N2 [FMNH2]
120 min biotransformation with FMNH2 supplied by purified flavin reductases, GC (3,6-DKCMO): can biooxygenate the bicyclic ketone by sourcing the requisite FMNH2 cosubstrate
120 min biotransformation with FMNH2 supplied by purified flavin reductases, GC (LuxAB luciferase): can biooxygenate the bicyclic ketone by sourcing the requisite FMNH2 cosubstrate

Cc1cc2nc3c(=O)[nH]c(=O)nc-3n(C[C@H](O)[C@H](O)[C@H](O)COP(=O)(O)O)c2cc1C [FMN]
Km (Frp2): 4.2 µM
Km (Frp1): 2.5 µM

B1: FreVf (Aliivibrio fischeri) (protein)
chain: MPINCKVKSIEPLACNTFRILLHPEQPVAFKAGQYLTVVMGEKDKRPFSIASSPCRHEGEIELHIGAAEHNAYAGEVVESMKSALETGGDILIDAPHGEAWIREDSDRSMLLIAGGTGFSYVRSILDHCISQQIQKPIYLYWGGRDECQLYAKAELESIAQAHSHITFVPVVEKSEGWTGKTGNVLEAVKADFNSLADMDIYIAGRFEMAGAAREQFTTEKQAKKEQLFGDAFAFI
Km (purified protein): 2.5 µM

B2: FRGVf (Aliivibrio fischeri) (protein)
chain: THPIIHDLENRYTSKKYDPSKKVSQEDLAVLLEALRLSASSINSQPWKFIVIESDAAKQRMHDSFANMHQFNQPHIKACSHVILFANKLSYTRDDYDVVLSKAVADKRITEEQKEAAFASFKFVELNCDENGEHKAWTKPQAYLALGNALHTLARLNIDSTTMEGIDPELLSEIFADELKGYECHVALAIGYHHPSEDYNASLPKSRKAFEDVITIL
Km (purified protein): 4.3 µM
